These results are taken from patent US20170136031A1, “PLATINUM COMPLEXES AS ANTICANCER AGENTS” (KING FAHD UNIVERSITY OF PETROLEUM AND MINERALS, priority 2014, published 2017).

What all share (type): cell-based
The subject of assay [1] is A549 (human lung carcinoma) cell line. Kind of assay: In vitro cytotoxicity against A549 cell line. The settings on record: from curves of complex concentration vs percentage viability.
Assay [2] has as its system MCF7 (human breast cancer) cell line. Kind of assay: In vitro cytotoxicity against MCF7 cell line. As to conditions: from curves of complex concentration vs percentage viability.
In assay [3] the test system is HCT15 (human colon adenocarcinoma) cell line. The experiment in a line: In vitro cytotoxicity against HCT15 cell line. As to conditions: from curves of complex concentration vs percentage viability.
Assay [4] has as its system HeLa (human cervical cancer) cell line. Kind of assay: In vitro cytotoxicity against HeLa cell line. The settings on record: read-out: IC50 values against HeLa cell line (unit inferred).

For `N.N.[Cl][Pt][Cl]` [Cisplatin, cisplatin], the IC50 in assay [1] amounted to 41.6 µM; in assay [2] it was 22.4 µM; in assay [3], 29.5 µM; in assay [4], 19.4 µM.

What is called IC50 is the concentration needed to halve the response being measured.
